Experiments:
Assay type in all cases: functional
SW-620 = experiment: Growth inhibition of human SW620 cells by sulforhodamine B assay
A549 [1] = experiment: Growth inhibition of human A549/ATCC cells by sulforhodamine B assay
UACC-62 [2] = experiment: Growth inhibition of human UACC62 cells assessed as cell growth at 10^-8 M by sulforhodamine B assay; settings: read-out: Activity
SK-MEL-5 = experiment: Growth inhibition of human SK-MEL-5 cells assessed as cell growth at 10^-8 M by sulforhodamine B assay; settings: read-out: Activity
SF-539 = experiment: Growth inhibition of human SF539 cells assessed as cell growth at 10^-8 M by sulforhodamine B assay; settings: read-out: Activity
COLO 205 = experiment: Growth inhibition of human COLO205 cells assessed as cell growth at 10^-8 M by sulforhodamine B assay; settings: read-out: Activity
SR [3] = experiment: Growth inhibition of human SR cells assessed as cell growth at 10^-8 M by sulforhodamine B assay; settings: read-out: Activity
BT-549 [4] = experiment: Growth inhibition of human BT549 cells by sulforhodamine B assay
[5] = Growth inhibition of human Hs 578T cells by sulforhodamine B assay
TK-10 [6] = experiment: Growth inhibition of human TK10 cells by sulforhodamine B assay
RXF 393 = experiment: Growth inhibition of human RXF393 cells by sulforhodamine B assay
ACHN [7] = experiment: Growth inhibition of human ACHN cells by sulforhodamine B assay
OVCAR-3 = experiment: Growth inhibition of human OVCAR3 cells by sulforhodamine B assay
IGROV-1 [8] = experiment: Growth inhibition of human IGROV1 cells by sulforhodamine B assay
DU-145 = experiment: Growth inhibition of human DU145 cells assessed as cell growth at 10^-4 M by sulforhodamine B assay; settings: read-out: Activity
UO-31 = experiment: Growth inhibition of human UO31 cells assessed as cell growth at 10^-4 M by sulforhodamine B assay; settings: read-out: Activity
IGROV-1 [9] = experiment: Growth inhibition of human IGROV1 cells assessed as cell growth at 10^-4 M by sulforhodamine B assay; settings: read-out: Activity
U-251 = experiment: Growth inhibition of human U251 cells assessed as cell growth at 10^-4 M by sulforhodamine B assay; settings: read-out: Activity
LOX IMVI [10] = experiment: Growth inhibition of human LOXIMVI cells assessed as cell growth at 10^-4 M by sulforhodamine B assay; settings: read-out: Activity
SF-295 = experiment: Growth inhibition of human SF295 cells assessed as cell growth at 10^-4 M by sulforhodamine B assay; settings: read-out: Activity
SR [11] = experiment: Growth inhibition of human SR cells assessed as cell growth at 10^-4 M by sulforhodamine B assay; settings: read-out: Activity
A549 [12] = experiment: Growth inhibition of human A549/ATCC cells assessed as cell growth at 10^-4 M by sulforhodamine B assay; settings: read-out: Activity
T47D [13] = experiment: Growth inhibition of human T47D cells assessed as cell growth at 10^-6 M by sulforhodamine B assay; settings: read-out: Activity
SN12C = experiment: Growth inhibition of human SN12C cells assessed as cell growth at 10^-6 M by sulforhodamine B assay; settings: read-out: Activity
TK-10 [14] = experiment: Growth inhibition of human TK10 cells assessed as cell growth at 10^-6 M by sulforhodamine B assay; settings: read-out: Activity
A498 = experiment: Growth inhibition of human A498 cells assessed as cell growth at 10^-6 M by sulforhodamine B assay; settings: read-out: Activity
LOX IMVI [15] = experiment: Growth inhibition of human LOXIMVI cells assessed as cell growth at 10^-6 M by sulforhodamine B assay; settings: read-out: Activity
SF-268 [16] = experiment: Growth inhibition of human SF268 cells assessed as cell growth at 10^-6 M by sulforhodamine B assay; settings: read-out: Activity
NCI-H460 = experiment: Growth inhibition of human NCI-H460 cells assessed as cell growth at 10^-6 M by sulforhodamine B assay; settings: read-out: Activity
T47D [17] = experiment: Growth inhibition of human T47D cells assessed as cell growth at 10^-7 M by sulforhodamine B assay; settings: read-out: Activity
TK-10 [18] = experiment: Growth inhibition of human TK10 cells assessed as cell growth at 10^-7 M by sulforhodamine B assay; settings: read-out: Activity
ACHN [19] = experiment: Growth inhibition of human ACHN cells assessed as cell growth at 10^-7 M by sulforhodamine B assay; settings: read-out: Activity
786-0 = experiment: Growth inhibition of human 786-0 cells assessed as cell growth at 10^-7 M by sulforhodamine B assay; settings: read-out: Activity
UACC-62 [20] = experiment: Growth inhibition of human UACC62 cells assessed as cell growth at 10^-7 M by sulforhodamine B assay; settings: read-out: Activity
UACC-257 = experiment: Growth inhibition of human UACC257 cells assessed as cell growth at 10^-7 M by sulforhodamine B assay; settings: read-out: Activity
SK-MEL-2 = experiment: Growth inhibition of human SK-MEL-2 cells assessed as cell growth at 10^-7 M by sulforhodamine B assay; settings: read-out: Activity
SF-268 [21] = experiment: Growth inhibition of human SF268 cells assessed as cell growth at 10^-7 M by sulforhodamine B assay; settings: read-out: Activity
HT-29 = experiment: Growth inhibition of human HT-29 cells assessed as cell growth at 10^-7 M by sulforhodamine B assay; settings: read-out: Activity
MDA-MB-468 = experiment: Growth inhibition of human MDA-MB-468 cells assessed as cell growth at 10^-8 M by sulforhodamine B assay; settings: read-out: Activity
BT-549 [22] = experiment: Growth inhibition of human BT549 cells assessed as cell growth at 10^-8 M by sulforhodamine B assay; settings: read-out: Activity
[23] = read-out: LC50 (the source's name)
[24] = read-out: pLC50 (the source's name) (converted)

CC1(C)C[C@@H](O)[C@]2(C(=O)O)CC[C@]3(C)C(=CC[C@@H]4[C@@]5(C)C/C(=C\C=C\c6ccccc6)C(=O)C(C)(C)[C@@H]5CC[C@]43C)[C@@H]2C1
GI50 (SW-620; read-out: GI50): 3.39 µM
CC50 (SW-620; [23]): 78.8 µM
TGI (SW-620; read-out: TGI): 15.4 µM
GI50 (SW-620; read-out: pGI50 (converted)): 3.39 µM
CC50 (SW-620; [24]): 79.4 µM
TGI (SW-620; read-out: pTGI (converted)): 15.5 µM
GI50 (A549 [1]; read-out: GI50): 2800 nM
CC50 (A549 [1]; [23]): 63.4 µM
TGI (A549 [1]; read-out: TGI): 11.2 µM
GI50 (A549 [1]; read-out: pGI50 (converted)): 2820 nM
CC50 (A549 [1]; [24]): 63.1 µM
TGI (A549 [1]; read-out: pTGI (converted)): 11.2 µM
growth at 0.01 µM (UACC-62 [2]): 96%
growth at 0.01 µM (SK-MEL-5): 99%
growth at 0.01 µM (SF-539): 93%
growth at 0.01 µM (COLO 205): 103%
growth at 0.01 µM (SR [3]): 107%
GI50 (BT-549 [4]; read-out: GI50): 3.84 µM
CC50 (BT-549 [4]; [23]): 55.9 µM
TGI (BT-549 [4]; read-out: TGI): 14.8 µM
GI50 (BT-549 [4]; read-out: pGI50 (converted)): 3.8 µM
CC50 (BT-549 [4]; [24]): 56.2 µM
TGI (BT-549 [4]; read-out: pTGI (converted)): 14.8 µM
GI50 ([5]; read-out: GI50): 3.29 µM
CC50 [5, 23]: > 100 µM
TGI ([5]; read-out: TGI): 20.6 µM
GI50 ([5]; read-out: pGI50 (converted)): 3.31 µM
CC50 [5, 24]: > 100 µM
TGI ([5]; read-out: pTGI (converted)): 20.4 µM
GI50 (TK-10 [6]; read-out: GI50): 3.71 µM
CC50 (TK-10 [6]; [23]): 42.4 µM
TGI (TK-10 [6]; read-out: TGI): 12.8 µM
GI50 (TK-10 [6]; read-out: pGI50 (converted)): 3.72 µM
CC50 (TK-10 [6]; [24]): 42.7 µM
TGI (TK-10 [6]; read-out: pTGI (converted)): 12.9 µM
GI50 (RXF 393; read-out: GI50): 2650 nM
CC50 (RXF 393; [23]): 29.7 µM
TGI (RXF 393; read-out: TGI): 7.65 µM
GI50 (RXF 393; read-out: pGI50 (converted)): 2630 nM
CC50 (RXF 393; [24]): 29.5 µM
TGI (RXF 393; read-out: pTGI (converted)): 7.59 µM
GI50 (ACHN [7]; read-out: GI50): 3.65 µM
CC50 (ACHN [7]; [23]): 39.2 µM
TGI (ACHN [7]; read-out: TGI): 13.3 µM
GI50 (ACHN [7]; read-out: pGI50 (converted)): 3.63 µM
CC50 (ACHN [7]; [24]): 38.9 µM
TGI (ACHN [7]; read-out: pTGI (converted)): 13.2 µM
GI50 (OVCAR-3; read-out: GI50): 2040 nM
CC50 (OVCAR-3; [23]): 14.2 µM
TGI (OVCAR-3; read-out: TGI): 4.81 µM
GI50 (OVCAR-3; read-out: pGI50 (converted)): 2040 nM
CC50 (OVCAR-3; [24]): 14.1 µM
TGI (OVCAR-3; read-out: pTGI (converted)): 4.79 µM
GI50 (IGROV-1 [8]; read-out: GI50): 4.14 µM
CC50 (IGROV-1 [8]; [23]): 73.8 µM
TGI (IGROV-1 [8]; read-out: TGI): 14.4 µM
GI50 (IGROV-1 [8]; read-out: pGI50 (converted)): 4.17 µM
CC50 (IGROV-1 [8]; [24]): 74.1 µM
TGI (IGROV-1 [8]; read-out: pTGI (converted)): 14.5 µM
growth at 100 µM (DU-145): -92%
growth at 100 µM (UO-31): -82%
growth at 100 µM (IGROV-1 [9]): -59%
growth at 100 µM (U-251): -79%
growth at 100 µM (LOX IMVI [10]): -90%
growth at 100 µM (SF-295): -66%
growth at 100 µM (SR [11]): -24%
growth at 100 µM (A549 [12]): -63%
growth at 1 µM (T47D [13]): 97%
growth at 1 µM (SN12C): 91%
growth at 1 µM (TK-10 [14]): 102%
growth at 1 µM (A498): 80%
growth at 1 µM (LOX IMVI [15]): 101%
growth at 1 µM (SF-268 [16]): 90%
growth at 1 µM (NCI-H460): 97%
growth at 0.1 µM (T47D [17]): 96%
growth at 0.1 µM (TK-10 [18]): 93%
growth at 0.1 µM (ACHN [19]): 98%
growth at 0.1 µM (786-0): 100%
growth at 0.1 µM (UACC-62 [20]): 93%
growth at 0.1 µM (UACC-257): 92%
growth at 0.1 µM (SK-MEL-2): 91%
growth at 0.1 µM (SF-268 [21]): 91%
growth at 0.1 µM (HT-29): 100%
growth at 0.01 µM (MDA-MB-468): 95%
growth at 0.01 µM (BT-549 [22]): 101%

From ChEMBL document CHEMBL2413072, “Synthesis and in vitro anticancer studies of novel C-2 arylidene congeners of lantadenes” (2013)
